B1: Plasminogen: plasminogen bound by Lysine-Sepharose, eluted by ε-aminocaproic acid (protein, UniProt P00747 20-810, looked up)
Plasminogen: EPLDDYVNTQGASLFSVTKKQLGAGSIEECAAKCEEDEEFTCRAFQYHSKEQQCVIMAENRKSSIIIRMRDVVLFEKKVYLSECKTGNGKNYRGTMSKTKNGITCQKWSSTSPHRPRFSPATHPSEGLEENYCRNPDNDPQGPWCYTTDPEKRYDYCDILECEEECMHCSGENYDGKISKTMSGLECQAWDSQSPHAHGYIPSKFPNKNLKKNYCRNPDRELRPWCFTTDPNKRWELCDIPRCTTPPPSSGPTYQCLKGTGENYRGNVAVTVSGHTCQHWSAQTPHTHNRTPENFPCKNLDENYCRNPDGKRAPWCHTTNSQVRWEYCKIPSCDSSPVSTEQLAPTAPPELTPVVQDCYHGDGQSYRGTSSTTTTGKKCQSWSSMTPHRHQKTPENYPNAGLTMNYCRNPDADKGPWCFTTDPSVRWEYCNLKKCSGTEASVVAPPPVVLLPDVETPSEEDCMFGNGKGYRGKRATTVTGTPCQDWAAQEPHRHSIFTPETNPRAGLEKNYCRNPDGDVGGPWCYTTNPRKLYDYCDVPQCAAPSFDCGKPQVEPKKCPGRVVGGCVAHPHSWPWQVSLRTRFGMHFCGGTLISPEWVLTAAHCLEKSPRPSSYKVILGAHQEVNLEPHVQEIEVSRLFLEPTRKDIALLKLSSPAVITDKVIPACLPSPNYVVADRTECFITGWGETQGTFGAGLLKEAQLPVIENKVCNRYEFLNGRVQSTELCAGHLAGGTDSCQGDSGGPLVCFEKDKYILQGVTSWGLGCARPNKPGVYVRVSRFVTWIEGVMRNN

Experiments:
CRP = target: T1, CRP (Rattus norvegicus, UniProt P48199); assay: Reduction by PC of K+/R+ phage protection in vitro; format: biochemical
T1 construct: from tissue; host or cells: rat serum
T1 sequence (P48199 20-230): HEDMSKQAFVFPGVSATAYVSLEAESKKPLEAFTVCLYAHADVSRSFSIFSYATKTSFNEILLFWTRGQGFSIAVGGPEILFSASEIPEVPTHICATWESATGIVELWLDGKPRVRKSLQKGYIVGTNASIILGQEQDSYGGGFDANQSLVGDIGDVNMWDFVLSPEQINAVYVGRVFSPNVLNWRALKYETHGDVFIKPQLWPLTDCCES
From the text: PC reduced the protection of K+/R+ phage both in vivo and in vitro, thereby confirming the role of CRP as a K+/R+ protection agent (FIG. 1B and Table 2K, respectively). […] Direct interaction between CRP and K+/R+ phage was shown with the phage immobilized on Affi-Gel 15. Immobilized K+/R+ phage, but not K−/R− phage, bound a substantial amount of serum protein that was eluted from the column by ε-ACA (FIG. 2C). […] The identification of this protein as CRP was confirmed by the Western blot analysis (FIG. 2B, lanes 2 and 3). No binding of CRP to K−/R− phage or a mock column was detected. […] The presence of multiple CRP molecules on surface of K+/R+ phage could provide steric protection against C-mediated inactivation. The role of CRP in protecting K+/R+ phage against C is consistent with the lack of protection for K+/R+ phage in human serum which normally contains little CRP.

[1] = Phage survival in rat serum in vitro (plaque forming assay); format: in vitro ADME; details: protein eluted from Lysine-Sepharose by ε-ACA; data not shown
Description: Serum preparation. Rat serum was prepared by clotting blood on ice.

Molecule	IC50 (CRP; K+19/16 clone)	IC50 (CRP; R+19/14 clone)	protective effect on phage [1]
C[N+](C)(C)CCOP(=O)(O)O [PC, phosphorylcholine]	~50 µM	~50 µM	–
B1	–	–	no protective effect
